In ChEMBL document CHEMBL6134858, “Structure-Based Discovery Targeting GSK-3α Reveals Potent Nanomolar Selective 4-Phenyl-1H-benzofuro[3,2-b]pyrazolo[4,3-e]pyridine Inhibitor with Promising Glioblastoma and CNS-Active Potential in Cellular Models” (J Med Chem, 2025):
Values belong to the compound of their own block, whether it stands above or below them. Active and inactive are the calls of the source. The rule behind the calls is not given here.

What was measured:
[1] = target: RAC-beta serine/threonine-protein kinase (Homo sapiens) (UniProt P31751); experiment: Inhibition of PKBbeta (unknown origin) assessed as residual activity at 10 uM relative to control
[2] = target: Cyclin-dependent kinase 9 (Homo sapiens) (UniProt P50750); experiment: Inhibition of CDK9 (unknown origin) assessed as residual activity at 10 uM relative to control
U-251 [3] = experiment: Induction of cell cycle arrest in human U-251MG cells assessed as accumulation of cell at G1 phase at IC50 concentration incubated for 72 hrs by propidium iodide/RNase staining based flow cytometry (reference value: 74.8 %); type: functional
[4] = target: Mitogen-activated protein kinase 1 (Homo sapiens) (UniProt P28482); experiment: Inhibition of ERK2 (unknown origin) assessed as residual activity at 10 uM relative to control
U-251 [5] = experiment: cells; settings: Homo sapiens, U-251, 24 h
Description: Antiproliferative activity against human U-251MG cells assessed as reduction in cell viability incubated for 24 hrs by PrestoBlue cell viability assay

Homo sapiens [6] = organism: Homo sapiens; experiment: Inhibition of PKA (unknown origin) at 10 uM
T98G [7] = experiment: Induction of cell cycle arrest in human T98G cells assessed as accumulation of cell at G1 phase at IC50 concentration incubated for 72 hrs by propidium iodide/RNase staining based flow cytometry (reference value: 73.3 %); type: functional
T98G [8] = experiment: Antiproliferative activity against human T98G cells assessed as reduction in cell viability incubated for 48 hrs by PrestoBlue cell viability assay
T98G [9] = experiment: Antiproliferative activity against human T98G cells assessed as reduction in cell viability at IC50 concentrations incubated for 72 hrs by PrestoBlue cell viability assay relative to control; type: functional
[10] = target: Protein kinase C gamma type (Homo sapiens) (UniProt P05129); experiment: Inhibition of PKCgamma (unknown origin) assessed as residual activity at 10 uM relative to control
[11] = target: Mitogen-activated protein kinase 3 (Homo sapiens) (UniProt P27361); experiment: Inhibition of ERK1 (unknown origin) assessed as residual activity at 10 uM relative to control
U-87 MG [12] = experiment: Induction of cell cycle arrest in human U-87 MG cells assessed as accumulation of cell at S phase at IC50 concentration incubated for 72 hrs by propidium iodide/RNase staining based flow cytometry relative to control; type: functional, U-87MG ATCC
U-251 [13] = experiment: Antiproliferative activity against human U-251MG cells assessed as reduction in cell viability incubated for 24 to 72 hrs by PrestoBlue cell viability assay; type: functional, cell-based; settings: dose 0.3-300 µM, time 24-72 hrs
[14] = Cytotoxicity against human Astrocyte at 100 uM incubated for 72 hrs by PrestoBlue cell viability assay; type: toxicity, cell-based
[15] = Cytotoxicity against human Astrocyte at 10 to 100 uM incubated for 72 hrs by PrestoBlue cell viability assay; type: toxicity, cell-based; settings: dose 10-100 µM
T98G [16] = experiment: Antiproliferative activity against human T98G cells assessed as reduction in cell viability incubated for 24 to 72 hrs by PrestoBlue cell viability assay; type: functional, cell-based; settings: dose 0.3-300 µM, time 24-72 hrs
[17] = target: Protein kinase C alpha type (Homo sapiens) (UniProt P17252); experiment: Inhibition of PKCalpha (unknown origin) assessed as residual activity at 10 uM relative to control
U-87 MG [18] = experiment: Induction of cell cycle arrest in human U-87 MG cells assessed as accumulation of cell at G1 phase at IC50 concentration incubated for 72 hrs by propidium iodide/RNase staining based flow cytometry (reference value: 55.0 %); type: functional, U-87MG ATCC
U-87 MG [19] = experiment: Induction of cell cycle arrest in human U-87 MG cells assessed as accumulation of cell at sub-G1 phase at IC50 concentration incubated for 72 hrs by propidium iodide/RNase staining based flow cytometry relative to control; type: functional; settings: U-87MG ATCC
T98G [20] = experiment: Antiproliferative activity against human T98G cells assessed as reduction in cell viability incubated for 72 hrs by PrestoBlue cell viability assay
U-87 MG [21] = experiment: Antiproliferative activity against human U-87 MG cells assessed as reduction in cell viability incubated for 72 hrs by PrestoBlue cell viability assay
[22] = target: Cyclin-dependent kinase 5 (Homo sapiens) (UniProt Q00535); experiment: Inhibition of CDK5 (unknown origin) assessed as residual activity at 10 uM relative to control
U-87 MG [23] = experiment: Antiproliferative activity against human U-87 MG cells assessed as reduction in cell viability incubated for 48 hrs by PrestoBlue cell viability assay
[24] = target: RAC-alpha serine/threonine-protein kinase (Homo sapiens) (UniProt P31749); experiment: Inhibition of PKBalpha (unknown origin) assessed as residual activity at 10 uM relative to control
U-251 [25] = experiment: cells; settings: Homo sapiens, U-251, 48 h
Description: Antiproliferative activity against human U-251MG cells assessed as reduction in cell viability incubated for 48 hrs by PrestoBlue cell viability assay

T98G [26] = experiment: Antiproliferative activity against human T98G cells assessed as reduction in cell viability at IC50 concentrations incubated for 72 hrs in presence of in BBB model (cocultured with HA, HBVP and HBMEC cells) by PrestoBlue cell viability assay relative to control; type: functional
U-87 MG [27] = experiment: Antiproliferative activity against human U-87 MG cells assessed as reduction in cell viability incubated for 24 to 72 hrs by PrestoBlue cell viability assay; type: functional, cell-based; settings: U-87MG ATCC, time 24-72 hrs
[28] = Metabolic stability in human liver microsomes assessed as intrinsic clearance at 10 uM incubated up to 60 mins by HPLC-MS analysis; type: ADME, Microsome; settings: 1 h
[29] = Metabolic stability in human liver microsomes assessed as half life at 10 uM incubated up to 60 mins by HPLC-MS analysis; type: ADME, Microsome
U-87 MG [30] = experiment: Antiproliferative activity against human U-87 MG cells assessed as reduction in cell viability incubated for 24 hrs by PrestoBlue cell viability assay
U-251 [31] = experiment: cells; settings: Homo sapiens, U-251, 72 h
Description: Antiproliferative activity against human U-251MG cells assessed as reduction in cell viability incubated for 72 hrs by PrestoBlue cell viability assay

U-251 [32] = experiment: Induction of cell cycle arrest in human U-251MG cells assessed as accumulation of cell at S phase at IC50 concentration incubated for 72 hrs by propidium iodide/RNase staining based flow cytometry relative to control; type: functional
T98G [33] = experiment: Induction of cell cycle arrest in human T98G cells assessed as accumulation of cell at S phase at IC50 concentration incubated for 72 hrs by propidium iodide/RNase staining based flow cytometry relative to control; type: functional
[34] = Inhibition of PKA (unknown origin); set-up: species or system Homo sapiens
T98G [35] = experiment: Antiproliferative activity against human T98G cells assessed as reduction in cell viability incubated for 24 hrs by PrestoBlue cell viability assay
Homo sapiens [36] = organism: Homo sapiens; experiment: Inhibition of PKA (unknown origin) assessed as residual activity at 10 uM relative to control
[37] = target: Cyclin-dependent kinase 2 (Homo sapiens) (UniProt P24941); experiment: Inhibition of CDK2 (unknown origin) assessed as residual activity at 10 uM relative to control

Chain of RAC-beta serine/threonine-protein kinase (Homo sapiens) (P31751 whole entry): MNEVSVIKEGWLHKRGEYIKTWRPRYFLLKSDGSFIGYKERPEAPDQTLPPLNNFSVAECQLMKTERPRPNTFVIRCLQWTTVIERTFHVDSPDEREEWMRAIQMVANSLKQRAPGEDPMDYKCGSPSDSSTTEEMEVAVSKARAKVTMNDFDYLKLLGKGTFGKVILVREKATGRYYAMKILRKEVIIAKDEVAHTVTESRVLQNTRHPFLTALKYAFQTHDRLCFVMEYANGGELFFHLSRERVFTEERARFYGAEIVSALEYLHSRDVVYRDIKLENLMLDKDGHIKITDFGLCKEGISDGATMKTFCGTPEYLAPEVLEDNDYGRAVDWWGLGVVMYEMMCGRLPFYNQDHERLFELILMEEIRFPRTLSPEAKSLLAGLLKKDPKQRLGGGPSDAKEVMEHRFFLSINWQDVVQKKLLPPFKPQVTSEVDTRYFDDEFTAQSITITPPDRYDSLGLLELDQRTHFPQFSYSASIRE
Chain of Mitogen-activated protein kinase 1 (Homo sapiens) (P28482 whole entry): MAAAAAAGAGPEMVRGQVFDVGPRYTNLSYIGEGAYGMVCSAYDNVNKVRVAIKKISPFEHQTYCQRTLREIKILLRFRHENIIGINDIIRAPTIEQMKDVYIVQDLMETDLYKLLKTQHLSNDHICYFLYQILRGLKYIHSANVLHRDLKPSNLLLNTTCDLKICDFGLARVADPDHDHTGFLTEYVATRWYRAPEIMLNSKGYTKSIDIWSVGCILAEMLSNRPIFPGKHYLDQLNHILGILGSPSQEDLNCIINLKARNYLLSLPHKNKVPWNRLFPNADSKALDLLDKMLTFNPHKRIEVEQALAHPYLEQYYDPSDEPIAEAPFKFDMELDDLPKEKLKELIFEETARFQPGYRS
Chain of Cyclin-dependent kinase 5 (Homo sapiens) (Q00535 whole entry, looked up): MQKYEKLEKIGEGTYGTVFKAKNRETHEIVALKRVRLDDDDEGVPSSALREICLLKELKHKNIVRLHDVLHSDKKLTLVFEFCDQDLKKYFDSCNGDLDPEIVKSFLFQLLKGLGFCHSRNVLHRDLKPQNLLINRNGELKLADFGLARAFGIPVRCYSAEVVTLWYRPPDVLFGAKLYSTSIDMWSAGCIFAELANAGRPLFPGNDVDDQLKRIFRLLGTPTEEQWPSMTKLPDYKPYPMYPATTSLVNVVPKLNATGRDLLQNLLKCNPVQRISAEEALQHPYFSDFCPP
Chain of Cyclin-dependent kinase 9 (Homo sapiens) (P50750 whole entry): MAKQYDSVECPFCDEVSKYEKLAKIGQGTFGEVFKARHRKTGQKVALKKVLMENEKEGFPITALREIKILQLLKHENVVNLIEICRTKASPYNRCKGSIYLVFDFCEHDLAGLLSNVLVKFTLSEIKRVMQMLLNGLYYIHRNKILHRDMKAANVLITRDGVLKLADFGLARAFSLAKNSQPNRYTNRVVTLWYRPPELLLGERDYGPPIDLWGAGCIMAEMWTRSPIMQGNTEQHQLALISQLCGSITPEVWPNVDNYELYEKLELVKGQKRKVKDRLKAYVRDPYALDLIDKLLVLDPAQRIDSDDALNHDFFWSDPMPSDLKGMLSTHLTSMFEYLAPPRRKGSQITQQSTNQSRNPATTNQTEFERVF
Chain of RAC-alpha serine/threonine-protein kinase (Homo sapiens) (P31749 whole entry): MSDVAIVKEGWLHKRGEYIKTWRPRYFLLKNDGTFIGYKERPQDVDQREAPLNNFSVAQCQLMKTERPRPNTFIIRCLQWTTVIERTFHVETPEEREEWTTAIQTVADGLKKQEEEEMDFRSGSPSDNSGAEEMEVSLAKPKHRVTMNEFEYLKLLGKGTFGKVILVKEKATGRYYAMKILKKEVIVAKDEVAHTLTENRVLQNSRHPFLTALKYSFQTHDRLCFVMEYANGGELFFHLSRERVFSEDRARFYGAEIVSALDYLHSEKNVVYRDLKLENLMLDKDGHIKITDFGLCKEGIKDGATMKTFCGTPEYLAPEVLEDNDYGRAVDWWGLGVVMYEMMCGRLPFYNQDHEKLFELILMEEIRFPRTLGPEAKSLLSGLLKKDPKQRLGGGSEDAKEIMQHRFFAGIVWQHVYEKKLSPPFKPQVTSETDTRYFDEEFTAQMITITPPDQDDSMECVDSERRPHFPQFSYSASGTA
Chain of Mitogen-activated protein kinase 3 (Homo sapiens) (P27361 whole entry): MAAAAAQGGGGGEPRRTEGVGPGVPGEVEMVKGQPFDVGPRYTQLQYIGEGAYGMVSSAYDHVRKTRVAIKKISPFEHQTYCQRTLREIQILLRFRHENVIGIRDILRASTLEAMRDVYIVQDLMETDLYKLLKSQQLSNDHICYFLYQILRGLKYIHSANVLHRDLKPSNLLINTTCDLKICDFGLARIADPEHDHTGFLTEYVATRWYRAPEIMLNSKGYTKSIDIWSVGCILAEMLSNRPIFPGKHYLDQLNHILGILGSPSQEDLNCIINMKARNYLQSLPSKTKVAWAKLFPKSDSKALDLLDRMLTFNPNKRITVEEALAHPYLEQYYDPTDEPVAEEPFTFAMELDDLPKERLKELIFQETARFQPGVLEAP

Activity [1]: > 50%
Activity [2]: > 50%
Activity [4]: > 50%
IC50 (U-251 [5]): 15.1 µM
inhibition (Homo sapiens [6]): Active
Activity [10]: > 50%
Activity [11]: > 50%
Activity [17]: > 50%
IC50 (U-87 MG [21]): 3.3 µM
Activity [22]: > 50%
IC50 (U-87 MG [23]): 4.7 µM
Activity [24]: > 50%
IC50 (U-251 [25]): 8.3 µM
CLH [28]: 5.6 µL/min/mg
half-life at 10 µM [29]: 1.68 h
IC50 (U-87 MG [30]): 15 µM
IC50 (U-251 [31]): 6.1 µM
IC50 [34]: 0.188 µM
Activity (Homo sapiens [36]): > 50%
Activity [37]: > 50%
Compound: CC(C)c1ccc(-c2c3cn[nH]c3nc3c2oc2cc(O)ccc23)cc1
Activity (U-251 [3]): 61.6%
Activity (T98G [7]): 65.8%
IC50 (T98G [8]): 8.1 µM
Activity (T98G [9]): 61%
Activity (U-87 MG [12]): 27.8%
Activity (U-251 [13]): Dose-dependent-effect
Activity [14]: Non-toxic
Activity [15]: Non-toxic
Activity (T98G [16]): Dose-dependent-effect
Activity (U-87 MG [18]): 45.5%
Activity (U-87 MG [19]): Active
IC50 (T98G [20]): 6.2 µM
Activity (T98G [26]): 78%
Activity (U-87 MG [27]): Dose-dependent-effect
Activity (U-251 [32]): 15.9%
Activity (T98G [33]): 22.3%
IC50 (T98G [35]): 12 µM

IC50 (U-251 [5]): 51 µM
IC50 (U-87 MG [21]): 23.6 µM
IC50 (U-87 MG [23]): 28.2 µM
IC50 (U-251 [25]): 24.9 µM
IC50 (U-87 MG [30]): 36.8 µM
IC50 (U-251 [31]): 15.7 µM
Compound: Cn1sc(=O)n(Cc2ccccc2)c1=O
IC50 (T98G [8]): 54.4 µM
Activity (U-251 [13]): Dose-dependent-effect
Activity (T98G [16]): Dose-dependent-effect
IC50 (T98G [20]): 41.4 µM
Activity (U-87 MG [27]): Dose-dependent-effect
IC50 (T98G [35]): 65.9 µM
